Results reported in patent US6740642B2, “Macrolides with antibacterial activity” (BAsilea Parmaceutica AG, priority 2000, dated 2004).
Values after ≈ are worked out from the molar mass of the structure shown.

Columns and labels:
Assay in all cases: MIC, standard microdilution
St. pneumoniae SL199T = type: cell-based, Streptococcus pneumoniae; conditions: for MIC: Streptococcus pneumoniae, read-out: minimum inhibitory concentration (MIC)
From the text: (§1) The antibacterial activities of the compounds have been determined by standard microdilution technique (National Committee for Clinical Laboratory Standards. 1997. Methods for dilution antimicrobial susceptibility tests for bacteria that grow aerobically, 4th edition. Approved standard M7-A4. National Committee for Clinical Laboratory Standards, Wayne, Pa.).

St. pneumoniae 12288 = type: cell-based, Streptococcus pneumoniae; conditions: for MIC: Streptococcus pneumoniae, read-out: minimum inhibitory concentration (MIC)
From the text: as §1

St. pneumoniae 1/1 = type: cell-based, Streptococcus pneumoniae; conditions: for MIC: Streptococcus pneumoniae, read-out: minimum inhibitory concentration (MIC)
From the text: as §1

St. pneumoniae 1/4 = type: cell-based, Streptococcus pneumoniae; conditions: for MIC: Streptococcus pneumoniae, read-out: minimum inhibitory concentration (MIC)
From the text: as §1

S. aureus ATCC29213 = type: cell-based, Staphylococcus aureus; conditions: for MIC: Staphylococcus aureus, read-out: minimum inhibitory concentration (MIC)
From the text: as §1

S. aureus 1086 = type: cell-based, Staphylococcus aureus; conditions: for MIC: Staphylococcus aureus, read-out: minimum inhibitory concentration (MIC)
From the text: as §1

S. aureus 745 = type: cell-based, Staphylococcus aureus; conditions: for MIC: Staphylococcus aureus, read-out: minimum inhibitory concentration (MIC)
From the text: as §1

[1] = tested on: P. aeruginosa ATCC27853 (+Ery. 32 μg/ml); type: cell-based
From the text: as §1

E. coli ATCC25922 = type: cell-based; conditions: for MIC: Escherichia coli, read-out: minimum inhibitory concentration (MIC)
From the text: as §1

SMILES	MIC (St. pneumoniae SL199T)	MIC (St. pneumoniae 12288)	MIC (St. pneumoniae 1/1)	MIC (St. pneumoniae 1/4)	MIC (S. aureus ATCC29213)	MIC (S. aureus 1086)	MIC (S. aureus 745)	minimum inhibitory concentration (MIC) [1]	MIC (E. coli ATCC25922)	minimum inhibitory concentration (MIC) (St. pneumoniae SL199T)	minimum inhibitory concentration (MIC) (St. pneumoniae 12288)	minimum inhibitory concentration (MIC) (St. pneumoniae 1/1)	minimum inhibitory concentration (MIC) (St. pneumoniae 1/4)	minimum inhibitory concentration (MIC) (S. aureus ATCC29213)	minimum inhibitory concentration (MIC) (S. aureus 1086)	minimum inhibitory concentration (MIC) (S. aureus 745)	minimum inhibitory concentration (MIC) (E. coli ATCC25922)
CO[C@@H]1[C@@H](O[C@@H]2O[C@H](C)[C@@H](O[C@H]3C[C@@](C)(O)[C@@H](OC(=O)CC(C)C)[C@H](C)O3)[C@H](N(C)C)[C@H]2O)[C@@H](CC=O)C[C@@H](C)[C@@H](O)/C=C/C=C/C[C@@H](C)OC(=O)C[C@H]1OC(C)=O [Josamycin, reference compound]	> 16 µg/mL	> 16 µg/mL	≤ 0.12 µg/mL	≤ 4 µg/mL	2 µg/mL (≈ 2.42 µM)	2 µg/mL (≈ 2.42 µM)	> 16 µg/mL	>16 µg/mL	> 16 µg/mL	–	–	–	–	–	–	–	–
CC[C@H]1OC(=O)[C@H](C)C(=O)[C@H](C)[C@@H](O[C@@H]2O[C@H](C)C[C@H](N(C)C)[C@H]2O)[C@](C)(OC)C[C@@H](C)C(=O)[C@H](C)[C@H]2[C@H](Sc3ccc(OC)c(OC)c3)C(=O)O[C@@]21C [Compound I-12]	–	–	–	–	–	–	–	>16 µg/mL	–	8 µg/mL (≈ 10.3 µM)	16 µg/mL (≈ 20.5 µM)	<=0.5 μg/ml	1 µg/mL (≈ 1.28 µM)	0.5 µg/mL (≈ 0.641 µM)	0.5 µg/mL (≈ 0.641 µM)	>16 µg/mL	>16 µg/mL

Now from value to compound:

MIC (St. pneumoniae SL199T)	MIC (St. pneumoniae 12288)	MIC (St. pneumoniae 1/1)	MIC (St. pneumoniae 1/4)	MIC (S. aureus ATCC29213)	MIC (S. aureus 1086)	MIC (S. aureus 745)	minimum inhibitory concentration (MIC) [1]	MIC (E. coli ATCC25922)	minimum inhibitory concentration (MIC) (St. pneumoniae SL199T)	minimum inhibitory concentration (MIC) (St. pneumoniae 12288)	minimum inhibitory concentration (MIC) (St. pneumoniae 1/1)	minimum inhibitory concentration (MIC) (St. pneumoniae 1/4)	minimum inhibitory concentration (MIC) (S. aureus ATCC29213)	minimum inhibitory concentration (MIC) (S. aureus 1086)	minimum inhibitory concentration (MIC) (S. aureus 745)	minimum inhibitory concentration (MIC) (E. coli ATCC25922)	SMILES
1 µg/mL (≈ 1.23 µM)	–	≤ 0.12 µg/mL	≤ 0.12 µg/mL	≤ 0.12 µg/mL	≤ 0.12 µg/mL	> 16 µg/mL	>16 µg/mL	> 16 µg/mL	–	–	–	–	–	–	–	–	CC[C@H]1OC(=O)[C@H](C)C(=O)[C@H](C)[C@@H](O[C@@H]2O[C@H](C)C[C@H](N(C)C)[C@H]2O)[C@](C)(OC)C[C@@H](C)C(=O)[C@H](C)[C@H]2[C@H](SCCn3cnc(-c4cccnc4)n3)C(=O)O[C@@]21C [Compound I-17, (3S,3aR,4R,6R,8R,9R,10R,12R,15R,15aS)-15-Ethyloctahydro-8-methoxy-4,6,8,10,12,15a-hexamethyl-3-[[2-[3-(3-pyridinyl)-1H-1,2,4-triazol-1-yl]ethyl]thio]-9-[[3,4,6-trideoxy-3-(dimethylamino)-β-D-xylo-hexopyranosyl]oxy]-2H-furo[2,3-c]oxacyclotetradecin-2,5,11,13(3H,6H,12H)-tetrone]
–	–	–	–	–	–	–	>16 µg/mL	–	8 µg/mL (≈ 10.8 µM)	>16 µg/mL	<=0.12 μg/ml	1 µg/mL (≈ 1.36 µM)	0.25 µg/mL (≈ 0.339 µM)	0.25 µg/mL (≈ 0.339 µM)	>16 µg/mL	>16 µg/mL	CC[C@H]1OC(=O)[C@H](C)C(=O)[C@H](C)[C@@H](O[C@@H]2O[C@H](C)C[C@H](N(C)C)[C@H]2O)[C@](C)(OC)C[C@@H](C)C(=O)[C@H](C)[C@H]2[C@H](SCCn3ccnc3)C(=O)O[C@@]21C [Compound I-22]
≤ 0.25 µg/mL	0.25 µg/mL (≈ 0.305 µM)	≤ 0.25 µg/mL	≤ 0.25 µg/mL	≤ 0.12 µg/mL	≤ 0.12 µg/mL	> 16 µg/mL	>16 µg/mL	16 µg/mL (≈ 19.5 µM)	–	–	–	–	–	–	–	–	CC[C@H]1OC(=O)[C@H](C)C(=O)[C@H](C)[C@@H](O[C@@H]2O[C@H](C)C[C@H](N(C)C)[C@H]2O)[C@](C)(OC)C[C@@H](C)C(=O)[C@H](C)[C@H]2[C@H](SCCCn3cnc4c(N)ncnc43)C(=O)O[C@@]21C [Compound I-26, (3S,3aR,4R,6R,8R,9R,10R,12R,15R,15aS)-3-[[3-[6-Amino-9H-purine-9-yl]propyl]thio]-15-ethyloctahydro-8-methoxy-4,6,8,10,12,15a-hexamethyl-9-[[3,4,6-trideoxy-3-(dimethylamino)-β-D-xylo-hexopyranosyl]oxy]-2H-furo[2,3-c]oxacyclotetradecin-2,5,11,13(3H,6H,12H)-tetrone]
